Common to all, as to assay type: physicochemical
Series [1] can be described thus: Reactivity towards ascorbate, decrease of absorption over time. Particulars: 0.23 mM compound, room temperature, 0.1 M triethylammonium acetate buffer pH 7, 5 fold molar excess of ascorbate. The method, then: 1-Acetylamino-5-methyl-phenazinium trifluormethanesulfonate, 1-Acetylamino-5-ethyl-phenazinium trifluoroacetate, and 1-(3-Carboxy-propionylamino)-5-ethyl-phenazinium (formula III) were compared regarding their reactivity towards ascorbate. To this end, each 0.23 mM of the respective compound was incubated at room temperature in 0.1 M triethylammonium acetate buffer (pH 7) in the presence of a 5 fold molar excess of ascorbate. Decrease of absorption at 517 nm (1-(3-Carboxy-propionylamino)-5-ethyl-phenazinium) or 512 nm (other two compounds) was recorded over time. Whereas with 1-Acetylamino-5-methyl-phenazinium, the absorption decreased by 12% per minute, the decrease slowed to 7% per minute for 1-Acetylamino-5-ethyl-phenazinium, and to less than 5% for 1-(3-Carboxy-propionylamino)-5-ethyl-phenazinium.

The nature of series [2]: Pot life of mediator formulations. The settings on record: 48 h vs t=0 in reaction mixture. The procedure: FIG. 3.) Pot life of mediator formulations. Mediators 1-(3-Carboxy-propionylamino)-5-ethyl-phenazinium and 1-(3-Carboxypropoxy)-5-ethylphenazinium were compared in a pot life experiment. Pot life of 1-(3-Carboxy-propionylamino)-5-ethyl-phenazinium (A: 0 h, B: 48 h) and 1-(3-Carboxypropoxy)-5-ethylphenazinium (C:=0 h, D: 48 h) are shown; Linear: linear regression.
Mediators 1-(3-Carboxy-propionylamino)-5-ethyl-phenazinium and 1-(3-Carboxypropoxy)-5-ethylphenazinium were compared in a pot life experiment. Performance of mediators was measured immediately after preparing the reaction mixture (t=0) and after 48 h. […] Therefore, both mediators seem to be very stable in a formulation.

Series [3] can be described thus: Formal redox potential by cyclic voltammetry in a test strip. The procedure:
FIG. 1.) cyclic voltammograms of 1-(3-Carboxy-propionylamino)-5-ethyl-phenazinium (compound of formula (III)). A: Buffer pH 7.0 (blank current), B: 2 mM 1-(3-Carboxy-propionylamino)-5-ethyl-phenazinium in buffer, C: 2 mM 1-(3-Carboxy-propionylamino)-5-ethyl-phenazinium+1.2 mM ascorbic acid in buffer, D: 1.2 mM ascorbic acid in buffer.
The formal redox potential of a typical 1-Acylated amino phenazinium ethosulfate, 1-(3-Carboxy-propionylamino)-5-ethyl-phenazinium (compound of formula (III)), was measured vs. Ag/AgCl at a gold working electrode in a test strip. The cyclic voltammograms show, that a relatively low potential of −100 mV vs. Ag/AgCl is sufficient in order to oxidize the substance.
The quasi reversible oxidation and reduction of the mediator 1-(3-Carboxy-propionylamino)-5-ethyl-phenazinium occurs in a potential range between 0 mV and −500 mV vs. Ag/AgCl via two electron transfer. Ascorbic acid cannot be oxidized in this potential window and the current is similar to the blank current of the pure buffer solution.

In the case of `CC[n+]1c2ccccc2nc2c(NC(=O)CCC(=O)O)cccc21` [1-(3-Carboxy-propionylamino)-5-ethyl-phenazinium], the “decrease of absorption at 517 nm” value in series [1] was “less than 5%”. Further, in series [2], the “change in current after pot life” value was “no significant decrease in current”. In series [3] (2 mM mediator + 1.2 mM ascorbic acid in buffer pH 7.0, cyclic voltammetry), the “redox potential after adding ascorbic acid” value is given as −231 mV vs. Ag/AgCl. The formal redox potential in series [3] (gold working electrode in a test strip, physiological conditions (0.9% NaCl), cyclic voltammetry) is −236 mV vs. Ag/AgCl.
For the molecule `CC(=O)Nc1cccc2c1nc1ccccc1[n+]2C.O=S(=O)([O-])C(F)(F)F` [1-Acetylamino-5-methyl-phenazinium, 1-Acetylamino-5-methyl-phenazinium trifluormethanesulfonate], the “decrease of absorption at 512 nm” value in series [1] stood at 12 % per minute.
In the case of `CC[n+]1c2ccccc2nc2c(OCCCC(=O)O)cccc21` [1-(3-Carboxypropoxy)-5-ethylphenazinium, reference compound], the “change in current after pot life” value in series [2] was “no significant decrease in current”.
As to `CC[n+]1c2ccccc2nc2c(NC(C)=O)cccc21.O=C([O-])C(F)(F)F` [1-Acetylamino-5-ethyl-phenazinium, 1-Acetylamino-5-ethyl-phenazinium trifluoroacetate], in series [1], the “decrease of absorption at 512 nm” value is listed as 7 % per minute.

The values are drawn from patent US9988358B2, “Phenazinium mediators” (Roche Diagnostics Operations, Inc., priority 2014, dated 2018).
